# Measured values from publication PMC12649549, “Sequence Permutation Generated Lysine and Tryptophan-Rich Antimicrobial Peptides with Enhanced Therapeutic Index” (Antibiotics, 2025).
# Where two headings read alike, the source gives them in different places.
# Key:
# [1] = tested on: A. baumannii 14B0091 (Acinetobacter sp., BCRC number 14B0091)
# How it was run: (§1)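 Salt and pH tolerance was assessed by determining MICs in LYM medium containing 50–300 mM NaCl, 0.5–2.5 mM MgCl2, or at pH 4.5–6.5, alongside MH broth. The inoculum was 5 × 10^5 CFU/mL.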
# [2] = tested on: A. baumannii 14B0097 (Acinetobacter sp., BCRC number 14B0097)
# How it was run: as §1
# [3] = tested on: Escherichia coli (ATCC 25922)
# How it was run: as §1
# [4] = tested on: S. aureus ATCC 25923
# How it was run: as §1
# [5] = tested on: S. aureus ATCC 33591
# How it was run: as §1
# [6] = tested on: S. aureus ATCC 33593
# How it was run: as §1
# [7] = tested on: Gram-positive bacteria; assay: Geometric mean MIC and therapeutic index, Gram-positive bacteria; type: cell-based; conditions: Gram-positive bacteria; for GM G+ (geometric mean of the MIC values): MH broth, MIC >50 µg/mL counted as 100 µg/mL; for Therapeutic Index (TI) G+: HC10/GM
# How it was run: (§2)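 Selectivity index derived from human red blood cell HC10 relative to geometric mean MIC. Inoculum was 5 × 10^5 CFU/mL in Müller-Hinton or modified LYM broth, and each experiment was repeated independently three times.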
# [8] = tested on: Both Gram-positive and -negative bacteria; assay: Geometric mean MIC, therapeutic index and fold changes of MIC, whole panel of strains; type: cell-based; conditions: for GM G−/+ (geometric mean of the MIC values): Both Gram-positive and -negative bacteria, MH broth, MIC >50 µg/mL counted as 100 µg/mL; for Therapeutic Index (TI) G−/+: HC10/GM, both Gram-positive and -negative bacteria; for weakening of antibacterial efficacy (MIC): LYM broth
# How it was run: as §2
# [9] = LYM broth, 0 mM NaCl, 16 h, 37 °C
# [10] = LYM broth, 50 mM NaCl, 16 h, 37 °C
# [11] = LYM broth, 100 mM NaCl, 16 h, 37 °C
# [12] = LYM broth, 200 mM (NaCl), 16 h, 37 °C
# [13] = LYM broth, 300 mM (NaCl), 16 h, 37 °C
# [14] = MH broth, 5 × 10^5 CFU/mL, 16 h, 37 °C, repeated three times
substance,measurement,setting,value
Ac-KKKWRKWLKWLAK-NH2 [Peptide W5K12],MIC,[1]; [9],1.56 µg/mL
same,MIC,"[1]; LYM broth, 0.5 mM MgCl2",1.56 µg/mL
same,MIC,"[1]; LYM broth, 1.5 mM MgCl2",1.56 µg/mL
same,MIC,"[1]; LYM broth, 2.5 mM MgCl2",1.56 µg/mL
same,MIC,[1]; [10],1.56 µg/mL
same,MIC,[1]; [11],1.56 µg/mL
same,MIC,[1]; [12],1.56 µg/mL
same,MIC,[1]; [13],3.13 µg/mL
same,MIC,"[1]; LYM broth, pH 4.5",3.13 µg/mL
same,MIC,"[1]; LYM broth, pH 5.5",3.13 µg/mL
same,MIC,"[1]; LYM broth, pH 6.5",1.56 µg/mL
same,MIC,[1]; [14],1.56 µg/mL
same,MIC,[2]; [9],1.56 µg/mL
same,MIC,"[2]; LYM broth, 0.5 mM MgCl2",1.56 µg/mL
same,MIC,"[2]; LYM broth, 1.5 mM MgCl2",1.56 µg/mL
same,MIC,"[2]; LYM broth, 2.5 mM MgCl2",3.13 µg/mL
same,MIC,[2]; [10],1.56 µg/mL
same,MIC,[2]; [11],1.56 µg/mL
same,MIC,[2]; [12],1.56 µg/mL
same,MIC,[2]; [13],3.13 µg/mL
same,MIC,"[2]; LYM broth, pH 4.5",3.13 µg/mL
same,MIC,"[2]; LYM broth, pH 5.5",3.13 µg/mL
same,MIC,"[2]; LYM broth, pH 6.5",1.56 µg/mL
same,MIC,[2]; [14],1.56 µg/mL
same,MIC,[3]; [9],1.56 µg/mL
same,MIC,"[3]; LYM broth, 0.5 mM MgCl2",3.13 µg/mL
same,MIC,"[3]; LYM broth, 1.5 mM MgCl2",3.13 µg/mL
same,MIC,"[3]; LYM broth, 2.5 mM MgCl2",3.13 µg/mL
same,MIC,[3]; [10],3.13 µg/mL
same,MIC,[3]; [11],3.13 µg/mL
same,MIC,[3]; [12],6.25 µg/mL
same,MIC,[3]; [13],12.5 µg/mL
same,MIC,"[3]; LYM broth, pH 4.5",1.56 µg/mL
same,MIC,"[3]; LYM broth, pH 5.5",1.56 µg/mL
same,MIC,"[3]; LYM broth, pH 6.5",1.56 µg/mL
same,MIC,[3]; [14],3.13 µg/mL
same,MIC,[4]; [9],1.56 µg/mL
same,MIC,"[4]; LYM broth, 0.5 mM MgCl2",1.56 µg/mL
same,MIC,"[4]; LYM broth, 1.5 mM MgCl2",3.13 µg/mL
same,MIC,"[4]; LYM broth, 2.5 mM MgCl2",3.13 µg/mL
same,MIC,[4]; [10],3.13 µg/mL
same,MIC,[4]; [11],3.13 µg/mL
same,MIC,[4]; [12],6.25 µg/mL
same,MIC,[4]; [13],12.5 µg/mL
same,MIC,"[4]; LYM broth, pH 4.5",3.13 µg/mL
same,MIC,"[4]; LYM broth, pH 5.5",3.13 µg/mL
same,MIC,"[4]; LYM broth, pH 6.5",1.56 µg/mL
same,MIC,[4]; [14],3.13 µg/mL
same,MIC,[5]; [9],3.13 µg/mL
same,MIC,"[5]; LYM broth, 0.5 mM MgCl2",3.13 µg/mL
same,MIC,"[5]; LYM broth, 1.5 mM MgCl2",3.13 µg/mL
same,MIC,"[5]; LYM broth, 2.5 mM MgCl2",3.13 µg/mL
same,MIC,[5]; [10],3.13 µg/mL
same,MIC,[5]; [11],3.13 µg/mL
same,MIC,[5]; [12],6.25 µg/mL
same,MIC,[5]; [13],12.5 µg/mL
same,MIC,"[5]; LYM broth, pH 4.5",3.13 µg/mL
same,MIC,"[5]; LYM broth, pH 5.5",3.13 µg/mL
same,MIC,"[5]; LYM broth, pH 6.5",3.13 µg/mL
same,MIC,[5]; [14],6.25 µg/mL
same,MIC,[6]; [9],3.13 µg/mL
same,MIC,"[6]; LYM broth, 0.5 mM MgCl2",3.13 µg/mL
same,MIC,"[6]; LYM broth, 1.5 mM MgCl2",3.13 µg/mL
same,MIC,"[6]; LYM broth, 2.5 mM MgCl2",3.13 µg/mL
same,MIC,[6]; [10],3.13 µg/mL
same,MIC,[6]; [11],3.13 µg/mL
same,MIC,[6]; [12],6.25 µg/mL
same,MIC,[6]; [13],12.5 µg/mL
same,MIC,"[6]; LYM broth, pH 4.5",3.13 µg/mL
same,MIC,"[6]; LYM broth, pH 5.5",1.56 µg/mL
same,MIC,"[6]; LYM broth, pH 6.5",1.56 µg/mL
same,MIC,[6]; [14],6.25 µg/mL
same,GM G+ (geometric mean of the MIC values),[7],4.7 µg/mL
same,Therapeutic Index (TI) G+,[7],8.8
same,GM G−/+ (geometric mean of the MIC values),[8],3.4 µg/mL
same,Therapeutic Index (TI) G−/+,[8],12.4
same,weakening of antibacterial efficacy (MIC),[8]; 300 mM NaCl,up to 4 fold
same,weakening of antibacterial efficacy (MIC),[8]; MgCl2 rising above 0.5 mM,up to 2 fold
Ac-WLKWLAKKKKWRK-NH2 [Peptide W5K05],MIC,[1]; [9],1.56 µg/mL
same,MIC,"[1]; LYM broth, 0.5 mM MgCl2",1.56 µg/mL
same,MIC,"[1]; LYM broth, 1.5 mM MgCl2",1.56 µg/mL
same,MIC,"[1]; LYM broth, 2.5 mM MgCl2",1.56 µg/mL
same,MIC,[1]; [10],1.56 µg/mL
same,MIC,[1]; [11],3.13 µg/mL
same,MIC,[1]; [12],6.25 µg/mL
same,MIC,[1]; [13],25 µg/mL
same,MIC,"[1]; LYM broth, pH 4.5",3.13 µg/mL
same,MIC,"[1]; LYM broth, pH 5.5",1.56 µg/mL
same,MIC,"[1]; LYM broth, pH 6.5",1.56 µg/mL
same,MIC,[1]; [14],12.5 µg/mL
same,MIC,[2]; [9],1.56 µg/mL
same,MIC,"[2]; LYM broth, 0.5 mM MgCl2",1.56 µg/mL
same,MIC,"[2]; LYM broth, 1.5 mM MgCl2",1.56 µg/mL
same,MIC,"[2]; LYM broth, 2.5 mM MgCl2",1.56 µg/mL
same,MIC,[2]; [10],3.13 µg/mL
same,MIC,[2]; [11],3.13 µg/mL
same,MIC,[2]; [12],6.25 µg/mL
same,MIC,[2]; [13],25 µg/mL
same,MIC,"[2]; LYM broth, pH 4.5",3.13 µg/mL
same,MIC,"[2]; LYM broth, pH 5.5",1.56 µg/mL
same,MIC,"[2]; LYM broth, pH 6.5",1.56 µg/mL
same,MIC,[2]; [14],6.25 µg/mL
same,MIC,[3]; [9],1.56 µg/mL
same,MIC,"[3]; LYM broth, 0.5 mM MgCl2",3.13 µg/mL
same,MIC,"[3]; LYM broth, 1.5 mM MgCl2",6.25 µg/mL
same,MIC,"[3]; LYM broth, 2.5 mM MgCl2",6.25 µg/mL
same,MIC,[3]; [10],3.13 µg/mL
same,MIC,[3]; [11],12.5 µg/mL
same,MIC,[3]; [12],50 µg/mL
same,MIC,[3]; [13],>50 µg/mL
same,MIC,"[3]; LYM broth, pH 4.5",1.56 µg/mL
same,MIC,"[3]; LYM broth, pH 5.5",1.56 µg/mL
same,MIC,"[3]; LYM broth, pH 6.5",1.56 µg/mL
same,MIC,[3]; [14],12.5 µg/mL
same,MIC,[4]; [9],1.56 µg/mL
same,MIC,"[4]; LYM broth, 0.5 mM MgCl2",1.56 µg/mL
same,MIC,"[4]; LYM broth, 1.5 mM MgCl2",3.13 µg/mL
same,MIC,"[4]; LYM broth, 2.5 mM MgCl2",3.13 µg/mL
same,MIC,[4]; [10],3.13 µg/mL
same,MIC,[4]; [11],6.25 µg/mL
same,MIC,[4]; [12],50 µg/mL
same,MIC,[4]; [13],50 µg/mL
same,MIC,"[4]; LYM broth, pH 4.5",1.56 µg/mL
same,MIC,"[4]; LYM broth, pH 5.5",1.56 µg/mL
same,MIC,"[4]; LYM broth, pH 6.5",1.56 µg/mL
same,MIC,[4]; [14],25 µg/mL
same,MIC,[5]; [9],6.25 µg/mL
same,MIC,"[5]; LYM broth, 0.5 mM MgCl2",6.25 µg/mL
same,MIC,"[5]; LYM broth, 1.5 mM MgCl2",12.5 µg/mL
same,MIC,"[5]; LYM broth, 2.5 mM MgCl2",12.5 µg/mL
same,MIC,[5]; [10],6.25 µg/mL
same,MIC,[5]; [11],12.5 µg/mL
same,MIC,[5]; [12],25 µg/mL
same,MIC,[5]; [13],50 µg/mL
same,MIC,"[5]; LYM broth, pH 4.5",6.25 µg/mL
same,MIC,"[5]; LYM broth, pH 5.5",3.13 µg/mL
same,MIC,"[5]; LYM broth, pH 6.5",3.13 µg/mL
same,MIC,[5]; [14],50 µg/mL
same,MIC,[6]; [9],6.25 µg/mL
same,MIC,"[6]; LYM broth, 0.5 mM MgCl2",12.5 µg/mL
same,MIC,"[6]; LYM broth, 1.5 mM MgCl2",12.5 µg/mL
same,MIC,"[6]; LYM broth, 2.5 mM MgCl2",12.5 µg/mL
same,MIC,[6]; [10],6.25 µg/mL
same,MIC,[6]; [11],12.5 µg/mL
same,MIC,[6]; [12],25 µg/mL
same,MIC,[6]; [13],50 µg/mL
same,MIC,"[6]; LYM broth, pH 4.5",3.13 µg/mL
same,MIC,"[6]; LYM broth, pH 5.5",3.13 µg/mL
same,MIC,"[6]; LYM broth, pH 6.5",3.13 µg/mL
same,MIC,[6]; [14],50 µg/mL
same,GM G+ (geometric mean of the MIC values),[7],33.0 µg/mL
same,Therapeutic Index (TI) G+,[7],3.3
same,GM G−/+ (geometric mean of the MIC values),[8],20.3 µg/mL
same,Therapeutic Index (TI) G−/+,[8],5.4
